From patent US8101550B2, “Anthranilic acid diamide derivative with hetero-aromatic and hetero-cyclic substituents” (Bayer Cropscience AG, priority 2006, dated 2012)

System: not listed separately
Assay: log P determination by HPLC on reverse-phase column (EEC Directive 79/831 Annex V.A8)
Type: physicochemical
Settings: not given
How it was run: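 Reverse-phase C18 HPLC at 43 °C, following EEC Directive 79/831 Annex V.A8. Acidic LC-MS used pH 2.7 eluents (0.1% aqueous formic acid and acetonitrile with 0.1% formic acid) on a 10–95% acetonitrile linear gradient. Log P was interpolated linearly from retention times against unbranched C3–C16 alkan-2-ones of known log P.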

SMILES	logP
Cc1cc(Cl)cc(C(N)=O)c1NC(=O)c1cc(Cn2cnc(C(F)(F)C(F)(F)F)n2)nn1-c1ncccc1Cl [I-1-330]	2.39
Cc1cc(Cl)cc(C(=O)NC2CC2)c1NC(=O)c1cc(Cn2cnc(C(F)(F)C(F)(F)F)n2)nn1-c1ncccc1Cl [I-1-331]	2.78
Cc1cc(Cl)cc(C(=O)NCC#N)c1NC(=O)c1cc(Cn2cnc(C(F)(F)C(F)(F)F)n2)nn1-c1ncccc1Cl [I-1-332]	2.59
CNC(=O)c1cc(C#N)cc(C)c1NC(=O)c1cc(Cn2cnc(C(F)(F)C(F)(F)F)n2)nn1-c1ncccc1Cl [I-1-333]	2.25
Cc1cc(Cl)cc(C(=O)NC(C)C)c1NC(=O)c1cc(Cn2cnc(C(F)(F)C(F)(F)F)n2)nn1-c1ncccc1Cl [I-1-334]	2.66
O=C(NC1CC1)c1cc(Cl)cc(Cl)c1NC(=O)c1cc(Cn2cnc(C(F)(F)C(F)(F)F)n2)nn1-c1ncccc1Cl [I-1-335]	2.69
NC(=O)c1cc(Cl)cc(Cl)c1NC(=O)c1cc(Cn2cnc(C(F)(F)C(F)(F)F)n2)nn1-c1ncccc1Cl [I-1-336]	2.32
N#CCNC(=O)c1cc(Cl)cc(Cl)c1NC(=O)c1cc(Cn2cnc(C(F)(F)C(F)(F)F)n2)nn1-c1ncccc1Cl [I-1-337]	2.56
Cc1cc(C#N)cc(C(=O)NC2CC2)c1NC(=O)c1cc(Cn2cnc(C(F)(F)C(F)(F)F)n2)nn1-c1ncccc1Cl [I-1-338]	2.45
Cc1cc(C#N)cc(C(N)=O)c1NC(=O)c1cc(Cn2cnc(C(F)(F)C(F)(F)F)n2)nn1-c1ncccc1Cl [I-1-339]	2.11
CC(C)NC(=O)c1cc(Cl)cc(Cl)c1NC(=O)c1cc(Cn2cnc(C(F)(F)C(F)(F)F)n2)nn1-c1ncccc1Cl [I-1-340]	2.55
Cc1cc(Cl)cc(C(=O)NC(C)C)c1NC(=O)c1cc(Cn2cnc(C(F)(F)C(F)(F)F)n2)nn1-c1ncccc1Cl [I-1-341]	2.63
CNC(=O)c1cc(Cl)cc(Cl)c1NC(=O)c1cc(Cn2cnc(C(F)(F)C(F)(F)F)n2)nn1-c1ncccc1Cl [I-1-342]	2.15
Cc1cc(Cl)cc(C(N)=O)c1NC(=O)c1cc(Cn2cnc(C(F)(F)C(F)(F)F)n2)nn1-c1ncccc1Cl [I-1-343]	2.02
O=C(NC1CC1)c1cc(Cl)cc(Cl)c1NC(=O)c1cc(Cn2cnc(C(F)(F)C(F)(F)F)n2)nn1-c1ncccc1Cl [I-1-344]	2.37
Cc1cc(Cl)cc(C(=O)NC2CC2)c1NC(=O)c1cc(Cn2cnc(C(F)(F)C(F)(F)F)n2)nn1-c1ncccc1Cl [I-1-345]	2.42
NC(=O)c1cc(Cl)cc(Cl)c1NC(=O)c1cc(Cn2cnc(C(F)(F)C(F)(F)F)n2)nn1-c1ncccc1Cl [I-1-346]	2.01
CNC(=O)c1cc(Cl)cc(C)c1NC(=O)c1cc(Cn2cnc(C(F)(F)C(F)(F)F)n2)nn1-c1ncccc1Cl [I-1-347]	2.19
Cc1cc(Cl)cc(C(=O)NCC#N)c1NC(=O)c1cc(Cn2cnc(C(F)(F)C(F)(F)F)n2)nn1-c1ncccc1Cl [I-1-348]	2.21
N#CCNC(=O)c1cc(Cl)cc(Cl)c1NC(=O)c1cc(Cn2cnc(C(F)(F)C(F)(F)F)n2)nn1-c1ncccc1Cl [I-1-349]	2.19
Cc1cc(C#N)cc(C(N)=O)c1NC(=O)c1cc(Cn2cnc(C(F)(F)C(F)(F)F)n2)nn1-c1ncccc1Cl [I-1-350]	1.75
Cc1cc(C#N)cc(C(=O)NCC#N)c1NC(=O)c1cc(Cn2cnc(C(F)(F)C(F)(F)F)n2)nn1-c1ncccc1Cl [I-1-351]	1.96
CNC(=O)c1cc(C#N)cc(C)c1NC(=O)c1cc(Cn2cnc(C(F)(F)C(F)(F)F)n2)nn1-c1ncccc1Cl [I-1-352]	1.91
Cc1cc(C#N)cc(C(=O)NC2CC2)c1NC(=O)c1cc(Cn2cnc(C(F)(F)C(F)(F)F)n2)nn1-c1ncccc1Cl [I-1-353]	2.08
Cc1cc(C#N)cc(C(=O)NC(C)C)c1NC(=O)c1cc(Cn2cnc(C(F)(F)C(F)(F)F)n2)nn1-c1ncccc1Cl [I-1-354]	2.23
CNC(=O)c1cc(Cl)cc(C)c1NC(=O)c1cc(C(=NOC)n2nc(C(F)(F)F)cc2C(F)(F)F)nn1-c1ncccc1Cl [I-1-355]	4.07

Same assay, conditions: HPLC on reverse-phase column

SMILES	logP
Cc1cc(Cl)cc(C(=O)NC(C)C)c1NC(=O)c1cc(Cn2nc(C(F)(F)F)cc2C(F)(F)F)nn1-c1ncccc1Cl [I-1-2]	4.08
Cc1cc(Cl)cc(C(=O)NC(C)C)c1NC(=O)c1cc(Cn2nc(C(F)(F)F)nc2C(F)(F)F)nn1-c1ncccc1Cl [I-1-5]	3.88
Cc1cc(Cl)cc(C(=O)NC(C)C)c1NC(=O)c1cc(Cn2ccc(C(F)(F)F)n2)nn1-c1ncccc1Cl [I-1-6]	3.27
Cc1cc(Cl)cc(C(=O)NC(C)C)c1NC(=O)c1cc(Cn2cc(F)cn2)nn1-c1ncccc1Cl [I-1-7]	2.70
Cc1cc(Cl)cc(C(=O)NC(C)C)c1NC(=O)c1cc(Cn2cc(C#N)cn2)nn1-c1ncccc1Cl [I-1-8]	2.57

Same assay, conditions: HPLC, reverse-phase column (C 18), 43° C., acidic range pH 2.7

logP	SMILES
4.08	Cc1cc(Cl)cc(C(=O)NC(C)C)c1NC(=O)c1cc(Cn2nc(C(F)(F)F)cc2C(F)(F)F)nn1C [I-2-1]
3.85	CC(C)NC(=O)c1cc(Cl)cc(Cl)c1NC(=O)c1cc(Cn2nc(C(F)(F)F)nc2C(F)(F)F)nn1C(C)C [I-2-2]
3.31	CNC(=O)c1cc(Cl)cc(Cl)c1NC(=O)c1cc(Cn2nc(C(F)(F)F)nc2C(F)(F)F)nn1C(C)C [I-2-3]
2.83	CNC(=O)c1cc(Cl)cc(Cl)c1NC(=O)c1cc(Cn2nc(C(F)(F)F)nc2C(F)(F)F)nn1C1CCCO1 (stereo not shown) [I-2-5]
2.99	CNC(=O)c1cc(Cl)cc(Cl)c1NC(=O)c1cc(Cn2nc(C(F)(F)F)nc2C(F)(F)F)nn1C1CCOC1 (stereo not shown) [I-2-6]
4.68	CC(C)NC(=O)c1cc(Cl)cc(Cl)c1NC(=O)c1cc(Cn2nc(C(F)(F)F)cc2C(F)(F)F)nn1-c1ncc(C(F)(F)F)cc1Cl [I-2-8]
4.98	Cc1cc(I)cc(C(=O)NC(C)C)c1NC(=O)c1cc(Cn2nc(C(F)(F)F)cc2C(F)(F)F)nn1-c1ncc(C(F)(F)F)cc1Cl [I-2-9]
4.73	Cc1cc(I)cc(C(=O)NC2CC2)c1NC(=O)c1cc(Cn2nc(C(F)(F)F)cc2C(F)(F)F)nn1-c1ncc(C(F)(F)F)cc1Cl [I-2-10]
4.78	Cc1cc(Cl)cc(C(=O)NC(C)C)c1NC(=O)c1cc(Cn2nc(C(F)(F)F)cc2C(F)(F)F)nn1-c1ncc(C(F)(F)F)cc1Cl [I-2-11]
4.52	Cc1cc(Cl)cc(C(=O)NC2CC2)c1NC(=O)c1cc(Cn2nc(C(F)(F)F)cc2C(F)(F)F)nn1-c1ncc(C(F)(F)F)cc1Cl [I-2-12]
4.46	O=C(NC1CC1)c1cc(Cl)cc(Cl)c1NC(=O)c1cc(Cn2nc(C(F)(F)F)cc2C(F)(F)F)nn1-c1ncc(C(F)(F)F)cc1Cl [I-2-13]
5.27	Cc1cc(Cl)cc(C(=O)NC(C2CC2)C2CC2)c1NC(=O)c1cc(Cn2nc(C(F)(F)F)cc2C(F)(F)F)nn1-c1ncc(C(F)(F)F)cc1Cl [I-2-14]
4.04	Cc1cc(Cl)cc(C(=O)NC(C)C2CC2)c1NC(=O)c1cc(Cn2nc(C(F)(F)F)cc2C(F)(F)F)nn1-c1ncc(C(F)(F)F)cc1Cl (stereo not shown) [I-2-15]
5.12	Cc1cc(Cl)cc(C(=O)NC(C)(C)C)c1NC(=O)c1cc(Cn2nc(C(F)(F)F)cc2C(F)(F)F)nn1-c1ncc(C(F)(F)F)cc1Cl [I-2-16]
4.23	Cc1cc(Cl)cc(C(=O)NCC#N)c1NC(=O)c1cc(Cn2nc(C(F)(F)F)cc2C(F)(F)F)nn1-c1ncc(C(F)(F)F)cc1Cl [I-2-18]
4.11	Cc1cc(F)cc(C(=O)NC2CC2)c1NC(=O)c1cc(Cn2nc(C(F)(F)F)cc2C(F)(F)F)nn1-c1ncc(C(F)(F)F)cc1Cl [I-2-19]
4.47	Cc1cc(F)cc(C(=O)NC(C)C)c1NC(=O)c1cc(Cn2nc(C(F)(F)F)cc2C(F)(F)F)nn1-c1ncc(C(F)(F)F)cc1Cl [I-2-20]
4.75	Cc1cc(Br)cc(C(=O)NC(C)C)c1NC(=O)c1cc(Cn2nc(C(F)(F)F)cc2C(F)(F)F)nn1-c1ncc(C(F)(F)F)cc1Cl [I-2-21]
4.63	Cc1cc(Br)cc(C(=O)NC2CC2)c1NC(=O)c1cc(Cn2nc(C(F)(F)F)cc2C(F)(F)F)nn1-c1ncc(C(F)(F)F)cc1Cl [I-2-24]
4.08	CC(C)NC(=O)c1cc2ccccc2c(Cl)c1NC(=O)c1cc(Cn2nc(C(F)(F)F)cc2C(F)(F)F)nn1-c1ncccc1Cl [I-3-1]

SMILES	logP
Cc1cc(Cl)cc(C(N)=O)c1NC(=O)c1cc(Cn2nc(C(F)(F)F)cc2C(F)(F)F)nn1-c1ncc(C(F)(F)F)cc1Cl [I-2-17]	4.09
CNC(=O)c1cc(Cl)cc(C)c1NC(=O)c1cc(Cn2nc(C(F)(F)F)cc2C(F)(F)F)nn1-c1ncc(C(F)(F)F)cc1Cl [I-2-22]	3.53
CNC(=O)c1cc(Cl)cc(Cl)c1NC(=O)c1cc(Cn2nc(C(F)(F)F)cc2C(F)(F)F)nn1-c1ncc(C(F)(F)F)cc1Cl [I-2-23]	3.54

Same assay, conditions: pH 2.7

SMILES	chromatographic logP
CNC(=O)c1cc(Cl)cc(C)c1NC(=O)c1cc(Cn2nc(C(F)(F)F)cc2C(F)(F)F)nn1-c1ncccc1Cl [I-1-1, 5-(3,5-Bis-trifluoromethylpyrazol-1-ylmethyl)-2-(3-chloropyridin-2-yl)-2H-pyrazole-3-carboxylic acid 4-chloro-2-methyl-6-methylcarbamoylphenyl amide]	3.67

System: caterpillars of the armyworm (Spodoptera frugiperda)
Assay: Spodoptera frugiperda test (cabbage leaves, immersion)
Type: in vivo
Settings: 0.8 g/ha; cabbage leaves immersed
Procedure: An appropriate preparation of active compound is prepared by mixing 1 part by weight of active compound with the stated amounts of solvent and emulsifier and diluting the concentrate with emulsifier-containing water to the desired concentration.
Cabbage leaves (Brassica oleracea) are treated by immersion into a preparation of active compound at the desired concentration and, are populated with caterpillars of the armyworm (Spodoptera frugiperda) while the leaves are still wet.
After the desired time the effect in % is determined. 100% means that all of the caterpillars have been killed; 0% means that no caterpillars have been killed.
Cabbage leaves (Brassica oleracea) are treated by immersion into a preparation of active compound at the desired concentration and are populated with caterpillars of the armyworm (Spodoptera frugiperda) while the leaves are still wet.

SMILES	Kill level after 7 d in % [%]
Cc1cc(Cl)cc(C(=O)NC(C)C)c1NC(=O)c1cc(Cn2nc(C(F)(F)F)nc2C(F)(F)F)nn1-c1ncccc1Cl [I-1-5]	100
Cc1cc(Cl)cc(C(=O)NC(C)C)c1NC(=O)c1cc(Cn2ccc(C(F)(F)F)n2)nn1-c1ncccc1Cl [I-1-6]	100
Cc1cc(Cl)cc(C(=O)NC(C)C)c1NC(=O)c1cc(Cn2cc(C#N)cn2)nn1-c1ncccc1Cl [I-1-8]	100

Same assay, conditions: 100 g/ha; cabbage leaves immersed

SMILES	Kill level after 7 d in % [%]
CNC(=O)c1cc(Cl)cc(C)c1NC(=O)c1cc(Cn2nc(C(F)(F)F)cc2C(F)(F)F)nn1-c1ncccc1Cl [I-1-1, 5-(3,5-Bis-trifluoromethylpyrazol-1-ylmethyl)-2-(3-chloropyridin-2-yl)-2H-pyrazole-3-carboxylic acid 4-chloro-2-methyl-6-methylcarbamoylphenyl amide]	100
Cc1cc(Cl)cc(C(=O)NC(C)C)c1NC(=O)c1cc(Cn2nc(C(F)(F)F)cc2C(F)(F)F)nn1-c1ncccc1Cl [I-1-2]	100
Cc1cc(Cl)cc(C(=O)NC(C)C)c1NC(=O)c1cc(Cn2nc(C(F)(F)F)nc2C(F)(F)F)nn1-c1ncccc1Cl [I-1-5]	100
Cc1cc(Cl)cc(C(=O)NC(C)C)c1NC(=O)c1cc(Cn2ccc(C(F)(F)F)n2)nn1-c1ncccc1Cl [I-1-6]	100
Cc1cc(Cl)cc(C(=O)NC(C)C)c1NC(=O)c1cc(Cn2cc(F)cn2)nn1-c1ncccc1Cl [I-1-7]	100
Cc1cc(Cl)cc(C(=O)NC(C)C)c1NC(=O)c1cc(Cn2cc(C#N)cn2)nn1-c1ncccc1Cl [I-1-8]	100
